Entries after “also recorded” stand apart in the source; their conditions may differ.
Assays:
[1] = molecular target: CaM1–80 (N-domain of calmodulin) (Rattus norvegicus, UniProt P0DP29); assay: Fluorescence anisotropy titration of Fl-Cav1.2p with CaM N-domain; type: binding; details: pre-IQ region, calcium-saturated
[2] = tested on: CaM1–80, sites I and II; assay: Fluorescence-monitored equilibrium Ca^2+ titration, sites I and II of CaM1–80; type: binding, rat
[3] = tested on: CaM1–148, sites I and II (N-domain); assay: Fluorescence-monitored equilibrium Ca^2+ titration, sites I and II of CaM1–148; type: binding, rat; details: for ΔΔG2 = ΔG2^app(CaM+CaV1.2p) − ΔG2^app(CaM): CaM1–148, sites I and II; for effect on Ca^2+-binding affinity of N-domain (in words): compared with IQ1644
[4] = tested on: CaM76–148, sites III and IV; type: binding, rat
[5] = tested on: CaM1–148, sites III and IV (C-domain); assay: Fluorescence-monitored equilibrium Ca^2+ titration, sites III and IV of CaM1–148; type: binding, rat; details: for ΔΔG2 = ΔG2^app(CaM+CaV1.2p) − ΔG2^app(CaM): CaM1–148, sites III and IV
[6] = molecular target: CaM76–148 (C-domain of calmodulin) (Rattus norvegicus, UniProt P0DP29); assay: Fluorescence anisotropy titration of Fl-Cav1.2p with CaM C-domain; type: binding
[7] = tested on: CaM1–148, sites I and II (N-domain); details: previous study; cited from earlier work
[8] = tested on: CaM1–148, sites III and IV (C-domain); details: previous study; cited from earlier work
[9] = Calcium dissociation from fluorescent indicator dye; type: binding
[10] = no peptide, pH 7.4, 22 °C, average ± SD
[11] = no peptide, 2 μM CaM, pH 7.4, 22 °C, average ± SD

Compound | ΔΔG2 = ΔG2^app(CaM+CaV1.2p) − ΔG2^app(CaM) [2] | ΔΔG2 = ΔG2^app(CaM+CaV1.2p) − ΔG2^app(CaM) [3] | ΔΔG2 = ΔG2^app(CaM+CaV1.2p) − ΔG2^app(CaM) [4] | ΔΔG2 = ΔG2^app(CaM+CaV1.2p) − ΔG2^app(CaM) [5] | effect on Ca^2+-binding affinity of N-domain (in words) [3] | other results
H-FNATLFALVRTALRIKTEGNLE-OH [A1588] | -1.55 kcal/mol | -2.99 kcal/mol | -0.72 kcal/mol | -1.05 kcal/mol |  | domain preference, (Ca^2+)2-N-domain [1]: bound preferentially to A1588; also recorded: higher affinity for CaM1–80 than for CaM76–148; also recorded: binding the N-domain of CaM more favorably than the C-domain; effect on Ca^2+-binding affinity of C-domain (in words) [5]: weak effect
CC[C@H](C)[C@H](NC(=O)[C@H](CC(C)C)NC(=O)[C@H](Cc1ccccc1)NC(=O)[C@@H](NC(=O)[C@H](C)N)[C@@H](C)O)C(=O)N[C@@H](CCC(N)=O)C(=O)N[C@@H](CCC(=O)O)C(=O)N[C@@H](Cc1ccc(O)cc1)C(=O)N[C@@H](Cc1ccccc1)C(=O)N[C@@H](CCCNC(=N)N)C(=O)N[C@@H](CCCCN)C(=O)N[C@@H](Cc1ccccc1)C(=O)N[C@@H](CCCCN)C(=O)N[C@@H](CCCCN)C(=O)N[C@@H](CCCNC(=N)N)C(=O)N[C@@H](CCCCN)C(=O)N[C@@H](CCC(=O)O)C(=O)N[C@@H](CCC(N)=O)C(=O)NCC(=O)N[C@@H](CC(C)C)C(=O)N[C@H](C(=O)NCC(=O)N[C@@H](CCCCN)C(=O)N1CCC[C@H]1C(=O)N[C@@H](CO)C(=O)N[C@@H](CCC(N)=O)C(=O)O)C(C)C [IQ′1650] | -0.82 kcal/mol | -1.24 kcal/mol | -3.35 kcal/mol | -3.63 kcal/mol | much weaker effect | fold more favorable affinity for CaM76–148 than CaM1–80 ([6]; Ca^2+-saturated): about 100 fold; Kd ([6]; Kd (CaM dissociation from Fl-Cav1.2p), calcium-saturated, CaM76–148, 10 mM CaCl2, pH 7.4, 22 °C, limit): ≤ 10 nM
H-ELRAIIKKIWKRTSMKLLDQVV-OH [C1614] | -1.15 kcal/mol | -1.10 kcal/mol | -2.95 kcal/mol | -2.94 kcal/mol | much weaker effect | domain preference, (Ca^2+)2-C-domain ([6]; pre-IQ region, calcium-saturated): preferred C1614; effect on Ca^2+-binding affinity of N-domain of CaM1–148 [7]: there was not an effect on the N-domain; effect on Ca^2+-binding affinity of C-domain of CaM1–148 [8]: increased the Ca^2+-binding affinity of the C-domain of CaM1–148
CaM76–148: C-domain fragment of calmodulin, residues 76–148 |  |  |  |  |  | ΔG1^app (calcium binding) [4, 10]: -5.45 ± 0.51 kcal/mol; ΔG2^app (calcium binding) [4, 10]: -14.66 ± 0.13 kcal/mol
CaM1–80: N-domain fragment of calmodulin, residues 1–80 |  |  |  |  |  | ΔG1^app (calcium binding) [2, 11]: -5.92 ± 0.38 kcal/mol; ΔG2^app (calcium binding) [2, 11]: -12.76 ± 0.09 kcal/mol
XRhod5F |  |  |  |  |  | fold lower Kd for calcium (vs Oregon Green) [9]: ~ 20 fold
